From US20230000863A1, “COMPOSITION CONTAINING AROMATIC HETEROCYCLIC COMPOUND IN AMORPHOUS FORM, AND PREPARATION METHOD THEREFOR AND USE THEREOF” (SHENZHEN CHIPSCREEN BIOSCIENCES CO., LTD., priority 2019, published 2023)

Columns and labels:
Assay type in all cases: in vivo
[1] = Pharmacokinetic test of compositions containing the compound of Formula (1) in rats; details: rat, po, fasted, gavage, 20 mg/kg of compound of Formula (1), LC-MS/MS
Procedure: Twenty-four healthy rats were selected and randomly divided into 4 groups, 6 rats per group, which were respectively compound of Formula (1), Example 3, Example 4 and Example 7. During the experiment, the rats were fasted overnight before administration, and blood was collected from the orbit before administration, and the plasma was separated, which was taken as the blood concentration sample at 0 h. The gavage solutions were prepared by dispersion with purified water, the concentration of the gavage solutions was 2 mg/ml, and each rat was administered with the compound of Formula (1) at a dose of 20 mg/kg, respectively. After administration, blood samples were collected at 15 min, 0.5 h, 1 h, 2 h, 4 h, 6 h, and 8 h, and each sample was collected about 0.5 ml, anticoagulated with heparin sodium, placed on ice after collection, and centrifuged within 1 hour to separate plasma, which was stored at −80° C. for later test. The drug concentration in plasma was measured by LC-MS/MS.

[2] = Pharmacokinetic test of pharmaceutical preparations in beagle dogs; details: po, fasted, gavage, 100 mg of compound of Formula (1) per dog, LC-MS/MS
Procedure: Nine healthy beagle dogs were selected, which were divided into the group of the compound of Formula (1), capsules of Formulation Example 1, and capsules of Formulation Example 11. During the experiment, the beagle dogs were fasted overnight before administration, and venous blood was collected before administration, and plasma was separated as the blood drug concentration sample at […]. Each beagle dog was administrated by gavage at a dose of 100 mg of the compound of Formula (1), respectively. After administration, blood samples were collected at 15 min, 0.5 h, 1 h, 2 h, 4 h, 8 h, and 24 h respectively. Each sample was collected about 0.5 ml, anticoagulated with heparin sodium, placed on ice after collection, and centrifuged within 1 hour to separate plasma, the drug concentration in plasma was measured by LC-MS/MS.

[3] = Pharmacokinetic test of pharmaceutical preparations in rats; details: both sexes, rat, po, fasted, gavage, 20 mg/kg of compound of Formula (1), LC-MS/MS
Excerpt: Thirty healthy rats were selected and randomly divided into 5 groups, 6 rats (3 females, 3 males) per group, which were respectively the groups of the compound of Formula (1), the capsules of Formulation Example 1, the granules of Formulation Example 4, the tablets of Formulation Example 7, and the soft capsules of Formulation Example 10. During the experiment, the rats were fasted overnight before administration, and blood was collected from the orbit before administration, and the plasma was separated, which was taken as the blood concentration sample at 0 h. The gavage solutions were prepared by dispersing with purified water, the concentration of the gavage solutions was 2 mg/ml, and each rat was administered with the compound of Formula (1) at a dose of 20 mg/kg respectively. After administration, blood samples were collected at 15 min, 0.5 h, 1 h, 2 h, 4 h, 6 h, and 8 h, and each sample was collected about 0.5 ml, anticoagulated with heparin sodium, placed on ice after collection, and centrifuged within 1 hour to separate plasma, which was stored at −80° C. for later test. The drug concentration in plasma was measured by LC-MS/MS.

AUC(0-t) ([1]; plasma 0-8 h): 235 ng·h/mL
Cmax ([1]; plasma): 243 ng/mL
AUC(0-t) ([2]; plasma 0-24 h): 30 ng·h/mL
Cmax ([2]; plasma): 22 ng/mL
half-life ([2]; plasma): 24 min
AUC(0-t) ([3]; plasma 0-8 h): 235 ng·h/mL
Cmax ([3]; plasma): 243 ng/mL
Structure (SMILES): C=CC(=O)N(C)c1cc(Nc2ncc(Cl)c(NCCCNC(=O)c3ccc(C#N)cc3)n2)ccc1F [Compound of Formula (1)]
